Among the data in paper PMC6934184, “Selective DNA-PKcs inhibition extends the therapeutic index of localized radiotherapy and chemotherapy” (The Journal of Clinical Investigation, 2019) are inhibition values, retold here.

The test addresses T1, LRRK2 I2020T (Homo sapiens, UniProt Q5S007, I2020T).
T1 construct: purchased Thermo Fisher Scientific (Life Technologies) SelectScreen
Nature of the test: SelectScreen Adapta. The test is classed as biochemical. As to the method:
The in vitro kinase selectivity of NU5455 was determined using the SelectScreen Broad Assay Panel (Thermo Fisher Scientific) involving activity and binding assays (Supplemental Table 1). […] Class IA PI3Ks were measured using the p85α subunit.
Kinase [ATP] % Assay Kinase [ATP] % Assay Kinase [ATP] % Assay Kinase [ATP] % Assay
DNA-PK Km app 98.3 Z LATS2 n/a 4.7 L KIT D820E n/a 1.3 L GSK3B (GSK3 beta) Km app -2.5 Z
PIK3C3 (hVPS34) Km app 85.9 A PRKCZ (PKC zeta) Km app 4.7 Z GRK1 n/a 1.3 L BMPR2 n/a -2.5 L
PIK3C2B (PI3K-C2 beta) 10 28.9 A FGFR1 Km app 4.7 Z BRSK2 n/a 1.2 L CDC42 BPB (MRCKB) Km app -2.5 Z
SNF1LK2 Km app 26.6 Z MINK1 Km app 4.6 Z NUAK1 (ARK5) Km app 1.2 A AMPK (A2/B2/G2) n/a -2.6 L
HCK Km app 18.0 Z CSF1R (FMS) Km app 4.3 Z CDK9/cyclin K n/a 1.0 L PRKG1 Km app -2.7 Z
NEK2 Km app 17.8 Z CSNK1G3 (CK1 gamma 3) Km app 4.2 Z NUAK2 n/a 1.0 L KIT T670E n/a -2.8 L
ALK Km app 17.3 Z STK32C (YANK3) n/a 4.2 L CDK2/cyclin O n/a 0.9 L ERBB4 (HER4) Km app -2.8 Z
FGFR3 K650M n/a 16.5 L STK22D (TSSK1) Km app 4.2 Z CAMKK2 (CaMKK beta) n/a 0.9 L PLK4 n/a -2.8 L
SIK3 n/a 16.1 L TAOK3 (JIK) n/a 4.2 L FGFR3 Km app 0.9 Z GRK7 Km app -3.0 Z
LYN A Km app 15.2 Z RPS6KA4 (MSK2) Km app 4.2 Z ULK2 n/a 0.9 L MAPKAPK2 Km app -3.1 Z
BMPR1B (ALK6) n/a 14.5 L PTK2B (FAK2) Km app 4.2 Z KIT D816V n/a 0.9 L FGFR4 Km app -3.1 Z
INSRR (IRR) Km app 14.1 Z CLK2 Km app 4.1 Z CAMK1 (CaMK1) 10 0.8 A CASK n/a -3.1 L
PLK2 Km app 14.1 Z STK24 (MST3) Km app 4.1 Z PTK6 (Brk) Km app 0.7 Z GRK5 Km app -3.2 Z
PRKACA (PKA) Km app 14.0 Z CAMK1D (CaMKI delta) Km app 4.1 Z CAMK2B (CaMKII beta) Km app 0.7 Z EGFR (ErbB1) T790M Km app -3.3 Z
EIF2AK2 (PKR) n/a 13.3 L INSR Km app 4.1 Z ACVR1 (ALK2) n/a 0.7 L PAK4 Km app -3.3 Z
PRKX Km app 12.5 Z IRAK1 Km app 4.0 A ABL1 H396P n/a 0.6 L DAPK3 (ZIPK) Km app -3.4 Z
FGR Km app 12.1 Z SRC N1 Km app 3.9 Z MERTK (cMER) A708S n/a 0.6 L RET M918T n/a -3.5 L
CLK1 Km app 11.7 Z SRPK2 Km app 3.9 Z MAPKAPK5 (PRAK) Km app 0.6 Z PRKCQ (PKC theta) Km app -3.7 Z
MARK3 Km app 11.4 Z RPS6KA6 (RSK4) Km app 3.8 Z AKT1 (PKB alpha) Km app 0.5 Z CAMKK1 (CAMKKA) n/a -3.8 L
PDGFRB (PDGFR beta) Km app 11.0 Z GRK6 Km app 3.7 Z NTRK3 (TRKC) Km app 0.4 Z FLT3 D835Y Km app -3.9 Z
PRKCN (PKD3) Km app 10.7 Z PKN1 (PRK1) Km app 3.6 Z ZAP70 Km app 0.3 Z ROCK2 Km app -4.1 Z
STK16 (PKL12) n/a 10.5 L MAP3K8 (COT) 100 3.5 Z CSNK1A1 (CK1 alpha 1) Km app 0.3 Z CHUK (IKK alpha) Km app -4.2 A
FES (FPS) Km app 10.4 Z FLT4 (VEGFR3) Km app 3.5 Z MYLK (MLCK) n/a 0.2 L AXL Km app -4.2 Z
ABL1 Km app 10.4 Z GRK4 Km app 3.5 Z MKNK2 (MNK2) n/a 0.2 L PIM2 Km app -4.3 Z
MUSK Km app 10.3 Z FRK (PTK5) Km app 3.4 Z AMPK (A1/B1/G3) n/a 0.2 L PAK1 Km app -4.4 Z
MAPK1 (ERK2) Km app 10.1 Z FYN A n/a 3.3 L MAP3K2 (MEKK2) n/a 0.1 L BMPR1A (ALK3) n/a -4.4 L
BRAF 100 9.9 Z CDK1/cyclin A2 n/a 3.3 L CDK8/cyclin C n/a 0.1 L STK4 (MST1) Km app -4.4 Z
IGF1R Km app 9.7 Z KIT V559D T670I n/a 3.1 L MARK2 Km app 0.1 Z PRKCH (PKC eta) Km app -4.6 Z
MAPK14 (p38 alpha) Km app 9.7 Z SPHK2 10 3.1 A ICK n/a 0.0 L SGKL (SGK3) Km app -4.6 Z
LCK Km app 9.6 Z FGFR3 G697C n/a 3.1 L FGFR2 Km app 0.0 Z PI4KB (PI4K beta) Km app -4.7 A
MAPK11 (p38 beta) Km app 9.5 Z RIPK2 n/a 3.1 L AKT2 (PKB beta) Km app 0.0 Z PRKCE (PKC epsilon) Km app -4.9 Z
SRC Km app 9.5 Z PAK6 Km app 3.0 Z EPHB2 Km app -0.1 Z PHKG1 Km app -5.0 Z
CHEK1 (CHK1) Km app 9.3 Z LYN B Km app 3.0 Z TGFBR2 n/a -0.1 L PDGFRA D842V Km app -5.0 Z
CAMK2D (CaMKII delta) Km app 9.3 Z DAPK2 n/a 2.9 L TEK (Tie2) Km app -0.1 Z PRKG2 (PKG2) Km app -5.1 Z
PLK1 Km app 9.2 Z EPHA4 Km app 2.9 Z AURKA (Aurora A) Km app -0.1 Z TYRO3 (RSE) Km app -5.1 Z
RET Y791F Km app 9.2 Z PIK3CG (p110 gamma) Km app 2.9 A KIT D816H n/a -0.2 L TAOK2 (TAO1) Km app -5.1 Z
FLT3 Km app 9.1 Z HIPK1 (Myak) Km app 2.8 Z KIT N822K n/a -0.2 L EPHB4 Km app -5.3 Z
MAPK10 (JNK3) 100 9.0 Z ADRBK2 (GRK3) Km app 2.8 Z PRKACG (PRKAC gamma) n/a -0.2 L AURKC (Aurora C) Km app -5.4 Z
CSNK2A2 (CK2 alpha 2) Km app 8.7 Z STK17B (DRAK2) n/a 2.7 L TEK (TIE2) Y1108F n/a -0.3 L JAK1 Km app -5.7 Z […]

The structures appear in SMILES notation.

T1 sequence (Q5S007 whole entry I2020T): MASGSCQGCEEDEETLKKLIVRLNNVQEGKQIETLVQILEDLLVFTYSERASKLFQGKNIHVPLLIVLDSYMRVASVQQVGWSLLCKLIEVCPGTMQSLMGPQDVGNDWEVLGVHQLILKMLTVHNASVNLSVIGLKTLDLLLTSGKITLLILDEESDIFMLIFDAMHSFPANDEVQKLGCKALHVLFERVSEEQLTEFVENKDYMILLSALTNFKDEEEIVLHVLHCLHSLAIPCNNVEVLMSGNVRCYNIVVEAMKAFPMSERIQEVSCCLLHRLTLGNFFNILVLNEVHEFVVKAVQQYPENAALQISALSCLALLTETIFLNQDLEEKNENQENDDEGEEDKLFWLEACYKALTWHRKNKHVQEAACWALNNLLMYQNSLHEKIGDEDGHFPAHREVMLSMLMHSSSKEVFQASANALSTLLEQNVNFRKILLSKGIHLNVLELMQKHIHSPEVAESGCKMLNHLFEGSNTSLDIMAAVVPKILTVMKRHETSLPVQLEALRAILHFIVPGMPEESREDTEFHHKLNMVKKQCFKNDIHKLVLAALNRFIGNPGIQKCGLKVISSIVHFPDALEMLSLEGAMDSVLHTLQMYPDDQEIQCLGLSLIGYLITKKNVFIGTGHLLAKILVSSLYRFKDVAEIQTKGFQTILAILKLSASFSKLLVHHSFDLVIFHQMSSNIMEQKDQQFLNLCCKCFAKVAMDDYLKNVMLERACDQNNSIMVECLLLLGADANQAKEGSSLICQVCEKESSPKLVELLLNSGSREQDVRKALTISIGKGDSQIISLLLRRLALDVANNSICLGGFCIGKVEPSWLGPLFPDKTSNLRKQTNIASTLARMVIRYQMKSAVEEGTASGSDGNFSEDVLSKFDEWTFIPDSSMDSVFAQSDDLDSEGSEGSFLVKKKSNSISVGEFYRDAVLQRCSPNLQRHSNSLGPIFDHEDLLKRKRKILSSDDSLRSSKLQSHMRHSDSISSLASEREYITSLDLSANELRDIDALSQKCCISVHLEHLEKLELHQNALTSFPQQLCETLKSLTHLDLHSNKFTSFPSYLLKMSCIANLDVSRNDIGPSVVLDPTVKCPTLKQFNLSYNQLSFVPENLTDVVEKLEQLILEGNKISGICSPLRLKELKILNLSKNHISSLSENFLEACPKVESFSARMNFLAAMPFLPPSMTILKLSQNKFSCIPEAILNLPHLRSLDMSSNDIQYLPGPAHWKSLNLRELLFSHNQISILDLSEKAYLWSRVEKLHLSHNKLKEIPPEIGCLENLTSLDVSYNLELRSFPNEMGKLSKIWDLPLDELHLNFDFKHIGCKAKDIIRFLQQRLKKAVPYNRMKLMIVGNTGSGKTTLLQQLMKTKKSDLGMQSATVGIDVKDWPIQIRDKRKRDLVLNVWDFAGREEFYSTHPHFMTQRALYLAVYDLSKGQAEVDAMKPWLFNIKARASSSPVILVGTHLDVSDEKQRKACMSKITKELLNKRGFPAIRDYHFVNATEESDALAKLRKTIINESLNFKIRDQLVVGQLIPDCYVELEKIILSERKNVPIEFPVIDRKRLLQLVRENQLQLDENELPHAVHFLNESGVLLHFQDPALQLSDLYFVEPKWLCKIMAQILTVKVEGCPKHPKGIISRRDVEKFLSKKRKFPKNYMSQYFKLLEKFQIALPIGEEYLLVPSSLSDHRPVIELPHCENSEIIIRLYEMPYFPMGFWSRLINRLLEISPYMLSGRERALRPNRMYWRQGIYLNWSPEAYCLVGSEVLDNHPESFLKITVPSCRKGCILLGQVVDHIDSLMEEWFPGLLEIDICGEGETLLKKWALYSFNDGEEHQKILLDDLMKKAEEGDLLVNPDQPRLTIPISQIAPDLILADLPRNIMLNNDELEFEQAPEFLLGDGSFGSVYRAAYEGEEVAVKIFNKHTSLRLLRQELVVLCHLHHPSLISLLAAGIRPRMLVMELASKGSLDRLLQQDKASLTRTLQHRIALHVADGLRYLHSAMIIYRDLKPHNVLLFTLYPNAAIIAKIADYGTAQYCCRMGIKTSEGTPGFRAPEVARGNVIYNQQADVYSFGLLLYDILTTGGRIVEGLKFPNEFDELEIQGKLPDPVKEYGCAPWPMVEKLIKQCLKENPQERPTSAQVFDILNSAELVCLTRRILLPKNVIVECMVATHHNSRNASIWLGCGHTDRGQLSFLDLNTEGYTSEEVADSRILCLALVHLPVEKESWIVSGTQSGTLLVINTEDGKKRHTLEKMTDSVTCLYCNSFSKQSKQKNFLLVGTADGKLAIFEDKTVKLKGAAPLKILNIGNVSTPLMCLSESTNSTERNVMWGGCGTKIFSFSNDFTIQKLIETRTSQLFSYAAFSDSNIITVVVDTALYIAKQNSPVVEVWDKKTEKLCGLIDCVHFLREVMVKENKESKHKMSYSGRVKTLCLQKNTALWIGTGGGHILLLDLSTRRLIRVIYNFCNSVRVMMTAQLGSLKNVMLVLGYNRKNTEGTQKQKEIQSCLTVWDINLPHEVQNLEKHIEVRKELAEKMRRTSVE

On to `CN(C(=O)CN1CCOCC1)c1ccc2sc3c(-c4cccc5c(=O)cc(N6CC7CCC(C6)O7)oc45)cccc3c2c1` [NU5455], for which the inhibition at 1 µM was -4%.
